According to patent publication US11667630B2, “Nitrogen-containing 6-membered cyclic compound” (Asahi Kasei Pharma Corporation, priority 2017, dated 2023):

Experiments:
[1] = target: human EP4 receptor (Homo sapiens, UniProt P35408); test: Receptor binding test, [3H]PGE2 binding inhibition, EP4; design: purchased Merck Millipore HTS142M; conditions: [3H]PGE2 1.24 nmol/L, membrane fraction HTS142M, 25°C 60 minutes
Protocol: In order to evaluate selectivity to each EP receptor subtype, [^3H]PGE2 binding-inhibition activities of test compounds for cell membranes on which human EP2, human EP3, and human EP4 receptors were stably expressed were measured.
As the membrane fractions of the prostaglandin E receptors EP2, EP3, and EP4, 10.0 μg protein/tube each of HTS185M, HTS092M, and HTS142M of Merck Millipore were used, respectively. Each membrane fraction was incubated with a reaction mixture (250 μL/tube) containing a test compound and [3H]PGE2 at 25° C. for 60 minutes. […] After the reaction, the membrane fraction was collected on filter paper by using a cell harvester, the filter paper was transferred to a measurement vial, and the measurement was performed on a liquid scintillation counter.
The nonspecific binding was determined as binding observed in the presence of excess amount (10 μM) of unlabeled PGE2. The measurement of the [3H]PGE2 binding-inhibiting activity of a test compound was performed by adding the test compound at various concentrations. The following buffers were used for the reaction.
Buffer for EP4: 50 mmol/L HEPES-NaOH (pH7.4) containing 5 mmol/L MgCl2, 1 mmol/L CaCl2), and 0.2% BSA

[2] = system: rat femur closed fracture model; test: Fracture healing-promoting action in rat femur closed fracture model; format: in vivo; conditions: SD rats; for Bone union rate after 25 days (%): judged on soft X-ray images; for Maximum torque (N · cm): torsion test of femur four weeks after fracture
From the text: In order to investigate fracture healing-promoting action of the compounds of the present invention, influence of injection of microspheres containing a test compound at a fracture site of a rat femur closed fracture model was confirmed.
Thirteen weeks old female SD rats (Japan SLC) were fixed in the side lying position under triple anesthesia (medetomidine hydrochloride, midazolam, and butorphanol tartrate). After hair of a region from the left knee to the femoral region was shaved with a hair clipper, and disinfection treatment was performed with povidone-iodine listed in Japanese Pharmacopoeia (Isodine solution for animals, 20 mg of povidone-iodine listed in Japanese Pharmacopoeia in 1 mL, Meiji Seika Pharma), the skin of the knee part and the medial great muscle of the lateral part of the patella were excised, and the patella was shifted from the femoral head. A drill bit attached to a trephine was put on the intercondylar fossa of the exposed femoral head, and manually rotated to make a bore. A Kirschner wire (Mizuho Co., Ltd.) having a diameter of 1.2 mm preliminarily cut in a length of 31 mm was inserted into the medullary cavity of the femur through the bore. Then, the left femoral region was fixed on a three-point bending test jig of a small desktop universal testing machine (EZ Test, Shimadzu Corp.), and closed fracture of the femoral diaphyseal was caused by giving a dynamic load. Whether fracture was successfully introduced or not was confirmed by confirming generation of a complete transverse fracture in the femoral diaphyseal on an X-ray image obtained with a soft X-ray generator (M-100W, Softex) and a digital X-ray sensor (NX-04, RF Co., Ltd.). A microsphere suspension obtained by suspending microspheres (prepared according to the method of Preparation Example 3) containing a test compound (compound of Example 23) in a CMC solution was injected into the fracture part in a volume of 100 μL as the administration volume (containing 100 or 300 μg of the test compound). As the control group, a drug liquid obtained by suspending the microspheres not containing the aforementioned test compound in the CMC solution (100 μL) alone was administered. One, two, and three weeks after the generation of fracture, soft X-ray images were taken under isoflurane anesthesia, and the areas of the callus part in the X-ray images were quantified by using Image J. Four weeks after the generation of fracture, soft X-ray images were taken under triple anesthesia, the animals were fixed in the supine position, and euthanized by bleeding, and the left femurs were extracted. […] The femur samples were cryopreserved until implementation of a bone strength test, and torsional strength was measured on the test day by using a bone strength measurement apparatus (MZ-500S, Maruto Instrument Co., Ltd.).

[3] = system: dog lumbar vertebrae posterolateral fixation model; test: Bone union-promoting action in dog lumbar vertebrae posterolateral fixation model; format: in vivo; conditions: twelve weeks after operation; for Continuity score based on soft X-ray image (Mean ± SD): grades 0 to 3 per Table 9; for Manual evaluation of bone union: beagle dogs, microspheres containing compound of Example 23 mixed with autologous bone graft, animals with union/5
Protocol: In order to investigate a bone union-promoting action in the spinal fusion of the compounds of the present invention, influence of mixing of microspheres containing a test compound at the time of autologous bone grafting was confirmed by using a lumbar vertebrae posterolateral fixation model.
Twelve to thirteen months old male beagle dogs ([…] LABES) were anesthetized by administration of a 1:1 mixture of ketamine hydrochloride (Ketalar 500 mg, Daiichi Sankyo Propharma Co., Ltd.) and xylazine (Selactar 2% Injection, Bayer Yakuhin, Ltd.) at a dose of about 0.5 mL/kg, and Japanese Pharmacopoeia-listed isoflurane (Elucaine, produced by Mylan Pharmaceutical) was inhaled with an inhaler IMPAC6 (VetEquip Inc.) to maintain the anesthesia. The animal was fixed in the prone position, hair of a wide area over the right and left spina iliaca posterior superiors, part around iliac crest, and lower back was shaved, and disinfection treatment was performed with povidone-iodine listed in Japanese Pharmacopoeia (Isodine solution for animals, 20 mg of povidone-iodine listed in Japanese Pharmacopoeia in 1 mL, Meiji Seika Pharma) and ethanol for disinfection (Wako Pure Chemical Industries). […] About 2 g each of the right and left iliums were extracted by using a rongeur and bone scissors, and astriction was performed. The collected ilium, from which the soft tissues were removed, was finely broken with bone scissors, and thereby made into chips of 1 mm size to obtain 2 g each of bone grafts for right and left. Then, the skin was dissected along the spinous processes of lower back with a scalpel, the left and right lumbodorsal fascias were dissected, and then the transverse processes of the fourth and fifth lumbar vertebrae were exposed while the multifidus muscle and longissimus muscle were separated and dissected between the fascias thereof. The soft tissues adhering to the transverse processes were removed, and then decortication of the cortical bone on the surface of the transverse processes was performed with an electric drill (OS-40MV2, Osada Electric Co., Ltd.) to prepare a bone graft bed. The bone graft (2 g) prepared above was sufficiently mixed with a microsphere suspension obtained by suspending microspheres containing a test compound (compound of Example 23) in an amount corresponding to 10, 30, or 100 μg of the test compound (prepared according to the method of Preparation Example 1) in 800 μL of a CMC solution, embedded and grafted on the transverse processes of the fourth and fifth lumbar vertebrae, and the bone graft bed between the transverse processes. After the autologous bone grafting, the lumbodorsal fascia, subcutaneous tissues, and skin were sutured, and the surgical site was disinfected. Twelve weeks after the operation, the animals were euthanized with overdose (30 mg/kg) of sodium pentobarbiturate (Somnopentyl, Kyoritsuseiyaku Corporation), and then the lumbar vertebrae were extracted. Bone union was judged by manually confirming movability of the fourth and fifth lumbar vertebrae (manual palpation) under blinding, and soft X-ray images were obtained from one direction by using Softex M-60 (Softex). The test was performed with the groups each consisting of 5 animals.

[4] = microspheres (Preparation Example 3) containing compound of Example 23, 100 μg injected into fracture part
[5] = microspheres (Preparation Example 3) containing compound of Example 23, 300 μg injected into fracture part
[6] = microspheres containing compound of Example 23, 100 μg
[7] = microspheres containing compound of Example 23, 300 μg

Sequence of human EP4 receptor (P35408 whole entry): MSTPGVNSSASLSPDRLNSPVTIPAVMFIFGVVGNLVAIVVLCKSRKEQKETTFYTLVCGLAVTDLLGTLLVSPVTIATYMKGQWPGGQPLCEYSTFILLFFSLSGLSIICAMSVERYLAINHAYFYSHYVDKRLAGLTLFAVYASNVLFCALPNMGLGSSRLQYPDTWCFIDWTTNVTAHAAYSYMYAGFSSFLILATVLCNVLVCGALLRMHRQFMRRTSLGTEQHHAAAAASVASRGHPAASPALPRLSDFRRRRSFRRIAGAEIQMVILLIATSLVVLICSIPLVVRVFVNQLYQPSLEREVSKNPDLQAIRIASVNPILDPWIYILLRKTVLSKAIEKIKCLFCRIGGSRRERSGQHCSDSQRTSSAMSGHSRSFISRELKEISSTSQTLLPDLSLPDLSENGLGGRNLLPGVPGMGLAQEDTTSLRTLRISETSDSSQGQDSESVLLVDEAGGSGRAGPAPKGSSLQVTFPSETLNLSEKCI

## O=C(O)c1ccc(CCN2C(=O)SCCN2CC[C@@H](O)Cc2cccc(C#Cc3ccsc3)c2)s1 [Example 23, (S)-5-(2-(4-(3-Hydroxy-4-(3-(thiophen-3-ylethynyl)phenyl)butyl)-2-oxo-1,3,4-thiadiazinan-3-yl)ethyl)thiophene-2-carboxylic acid]
[1]
  IC50: 4.35 nM
[2]; [4]
  Callus area (mm^2) One week after fracture: 5.24 ± 2.87 mm^2
  Callus area (mm^2) Three weeks after fracture: 35.9 ± 6.3 mm^2
  Callus area (mm^2) Two weeks after fracture: 28.6 ± 4.7 mm^2
[2]; [5]
  Callus area (mm^2) One week after fracture: 6.01 ± 2.75 mm^2
  Callus area (mm^2) Three weeks after fracture: 33.8 ± 6.8 mm^2
  Callus area (mm^2) Two weeks after fracture: 28.9 ± 3.8 mm^2
[2]; [6]
  Bone union rate after 25 days (%): 90.0%
  Maximum torque (N · cm): 20.4 ± 7.1 N · cm
[2]; [7]
  Bone union rate after 25 days (%): 85.7%
  Maximum torque (N · cm): 26.3 ± 11.7 N · cm
[3]; 10 μg/site
  Continuity score based on soft X-ray image (Mean ± SD): 2.4 ± 0.5
  Manual evaluation of bone union: 4/5
[3]; 30 μg/site
  Continuity score based on soft X-ray image (Mean ± SD): 2.6 ± 0.5
  Manual evaluation of bone union: 4/5
[3]; 100 μg/site
  Continuity score based on soft X-ray image (Mean ± SD): 2.8 ± 0.4
  Manual evaluation of bone union: 4/5
